# Measurements reported in patent US7989438B2, “Therapeutic compounds” (Istituto di Ricerche di Biologia Molecolare P. Angeletti SpA, priority 2007, dated 2011).
# Read-outs that look alike come from different tables or passages of the source.
# Tested on: HCV subgenomic replication
# Test: Cell based HCV replication assay (subgenomic replicon in Huh-7 cells, NS3 Cell-ELISA)
# Details: activity ranges
# Source text: Cell clones that stably maintain subgenomic HCV replicon were obtained by transfecting Huh-7 cells with an RNA replicon identical to I377neo/NS3-3′/wt described by Lohmann et al. (1999) (EMBL-genbank No. AJ242652), followed by selection with neomycin sulfate (G418). Viral replication was monitored by measuring the expression of the NS3 protein by an ELISA assay performed directly on cells grown in 96 wells microtiter plates (Cell-ELISA) using the anti-NS3 monoclonal antibody 10E5/24 (as described in published International application WO 02/59321). Cells were seeded into 96 well plates at a density of 10^4 cells per well in a final volume of 0.1 ml of DMEM/10% FCS. Two hours after plating, 50 μl of DMEM/10% FCS containing a 3× concentration of inhibitor were added, cells were incubated for 96 hours and then fixed for 10 minutes with ice-cold isopropanol. Each condition was tested in duplicate and average absorbance values were used for calculations. The cells were washed twice with PBS, blocked with 5% non-fat dry milk in PBS+0.1% Triton X100+0.02% SDS (PBSTS) and then incubated o/n at 4° C. with the 10E5/24 mab diluted in Milk/PBSTS. After washing 5 times with PBSTS, the cells were incubated for 3 hours at room temperature with Fc specific anti-mouse IgG conjugated to alkaline phosphatase (Sigma), diluted in Milk/PBSTS. After washing again as above, the reaction was developed with p-Nitrophenyl phosphate disodium substrate (Sigma) and the absorbance at 405/620 nm read at intervals. For calculations, we used data sets where samples incubated without inhibitors had absorbance values comprised between 1 and 1.5. The inhibitor concentration that reduced by 50% the expression of NS3 (IC50) was calculated by fitting the data to the Hill equation, Fraction inhibition=1−(Ai−b)/(A0−b)=[I]^n/([I]^n+[…]) where: • Ai=absorbance value of HBI10 cells supplemented with the indicated inhibitor concentration. • A0=absorbance value of HBI10 cells incubated without inhibitor. • b=absorbance value of Huh-7 cells plated at the same density in the same microtiter plates and incubated without inhibitor. • n=Hill coefficient.
# [1] = Hepatitis C virus, Huh-7, Table 3, various macrocycles, read-out: IC50* (nM), Inhibition of HCV subgenomic replication
# [2] = Table 2, various macrocycles, read-out: IC50* (nM), Inhibition of HCV subgenomic replication
# [3] = Table A, Huh-7 replicon cells, 96 hours, read-out: IC50 (nM), Inhibition of HCV subgenomic replication
# [4] = Table 5, various macrocycles, read-out: IC50* (nM), Inhibition of HCV subgenomic replication
# [5] = Table 4, various macrocycles, read-out: IC50* (nM), Inhibition of HCV subgenomic replication
structure (smiles),measurement,setting,value
"O=C1NS(=O)(=O)N2CCCN(CCN(Cc3ccccc3)[C@H]3COc4ccccc4-c4c(C5CCCCC5)c5ccc1cc5n4C3)CC2 [Example 309, (20R)-21-benzyl-31-cyclohexyl-18-oxa-2-thia-1,3,10,21,24-pentaazahexacyclo[22.3.2.1^5,9.1^8,11.1^10,20.0^12,17]dotriaconta-5(32),6,8,11(31),12,14,16-heptaen-4-one 2,2-dioxide]",IC50,[1],150 to 500 nM
"CN(C)CCN1CCN(C)C2COc3ccccc3-c3c(C4CCCCC4)c4ccc(cc4n3C2)C(=O)NS(=O)(=O)N(C)CC1 [Example 220, (7R)-14-cyclohexyl-21-[2-(dimethylamino)ethyl]-18,24-dimethyl-7,8-dihydro-6H-7,11-(epiminoethanoiminoethanoiminothioiminomethano)-indolo[1,2-e][1,5]benzoxazocin-15-one 17,17-dioxide]",IC50,[2],< 25 nM
"CN1CCCN(C)S(=O)(=O)NC(=O)c2ccc3c(C4CCCCC4)c4n(c3c2)CC(CC1)COc1ccccc1-4 (single isomer, unassigned; (-)) [Compound A14, (−)-14-cyclohexyl-18,22-dimethyl-7,8-dihydro-6H-7,11-(ethanoiminopropanoiminothioiminomethano)indolo[1,2-e][1,5]benzoxazocin-15-one 17,17-dioxide]",IC50,[3],< 25 nM
"Cc1cccc2c1OCC1CCN(C)CCCN(C)S(=O)(=O)NC(=O)c3ccc4c(C5CCCCC5)c-2n(c4c3)C1 [Example 521, (7R)-14-cyclohexyl-4,18,22-trimethyl-7,8-dihydro-6H-7,11-(ethanoiminopropanoiminothioiminomethano)indolo[1,2-e][1,5]benzoxazocin-15-one 17,17-dioxide]",IC50,[4],< 25 nM
"CN(C)CCN1CCOC2CCN(CC2)S(=O)(=O)NC(=O)c2ccc3c(C4CCCCC4)c4n(c3c2)C[C@@H]1COc1ccccc1-4 [Example 307, (20R)-31-cyclohexyl-21-[2-(dimethylamino)ethyl]-18,24-dioxa-2-thia-1,3,10,21-tetraazahexacyclo[23.2.2.1^5,9.1^8,11.1^10,20.0^12,17]dotriaconta-5(32),6,8,11(31),12,14,16-heptaen-4-one 2,2-dioxide]",IC50,[1],150 to 500 nM
"Cc1cccc2c1OCC1CCCN(C)CCN(C)S(=O)(=O)NC(=O)c3ccc4c(C5CCCCC5)c-2n(c4c3)C1 [Example 520, (7R)-14-cyclohexyl-4,18,21-trimethyl-7,8-dihydro-6H-7,11-(propanoiminoethanoiminothioiminomethano)indolo[1,2-e][1,5]benzoxazocin-15-one 17,17-dioxide]",IC50,[4],< 25 nM
"CN1CCN(Cc2cnn(C)c2)C2COc3ccccc3-c3c(C4CCCCC4)c4ccc(cc4n3C2)C(=O)NS(=O)(=O)N(C)CC1 [Example 409, (7R)-14-cyclohexyl-18,21-dimethyl-24-[(1-methyl-1H-pyrazol-4-yl)methyl]-7,8-dihydro-6H-7,11-(epiminoethanoiminoethanoiminothioiminomethano)-indolo[1,2-e][1,5]benzoxazocin-15-one 17,17-dioxide]",IC50,[5],< 25 nM
"CCN1CCN(CCNC)C2COc3cc(F)ccc3-c3c(C4CCCCC4)c4ccc(cc4n3C2)C(=O)NS(=O)(=O)N(C)CC1 [Example 208, (7R)-14-cyclohexyl-21-ethyl-3-fluoro-18-methyl-24-[2-(methylamino)ethyl]-7,8-dihydro-6H-7,11-(epiminoethanoiminoethanoiminothioiminomethano)-indolo[1,2-e][1,5]benzoxazocin-15-one 17,17-dioxide]",IC50,[2],25 to 150 nM
"CN1CCNCCN(C)S(=O)(=O)NC(=O)c2ccc3c(C4CCCCC4)c4n(c3c2)C[C@@H]1COc1c(CN2CCOCC2)cccc1-4 [Example 410, (7R)-14-cyclohexyl-18,24-dimethyl-4-(morpholin-4-ylmethyl)-7,8-dihydro-6H-7,11-(epiminoethanoiminoethanoiminothioiminomethano)-indolo[1,2-e][1,5]benzoxazocin-15-one 17,17-dioxide]",IC50,[5],25 to 150 nM
"CN1CCN(C)C2COc3ccccc3-c3c(C4CCCCC4)c4ccc(cc4n3C2)C(=O)NS(=O)(=O)N(C)C(C)(C)C1 [Compound A24, (7R)-14-cyclohexyl-18,19,19,21,24-pentamethyl-7,8-dihydro-6H-7,11-(epiminoethanoiminoethanoiminothioiminomethano)indolo[1,2-e][1,5]benzoxazocin-15-one 17,17-dioxide]",IC50,[3],25 to 150 nM
"CCN1CCN(CCN(C)C)C2COc3c(C)cccc3-c3c(C4CCCCC4)c4ccc(cc4n3C2)C(=O)NS(=O)(=O)N(C)CC1 [Example 219, (7R)-14-cyclohexyl-24-[2-(dimethylamino)ethyl]-21-ethyl-4,18-dimethyl-7,8-dihydro-6H-7,11-(epiminoethanoiminoethanoiminothioiminomethano)-indolo[1,2-e][1,5]benzoxazocin-15-one 17,17-dioxide]",IC50,[2],< 25 nM
"CN1CCN(C)C2COc3c(OCCN4CCCC4)cccc3-c3c(C4CCCCC4)c4ccc(cc4n3C2)C(=O)NS(=O)(=O)N(C)CC1 [Compound A32, (7R)-14-cyclohexyl-18,21,24-trimethyl-4-(2-pyrrolidin-1-ylethoxy)-7,8-dihydro-6H-7,11-(epiminoethanoiminoethanoiminothioiminomethano)indolo[1,2-e][1,5]benzoxazocin-15-one 17,17-dioxide]",IC50,[3],< 25 nM
"CCN1CCN(CC)C2COc3ccccc3-c3c(C4CCCCC4)c4ccc(cc4n3C2)C(=O)NS(=O)(=O)N(C)CC1 [Example 107, (7R)-14-cyclohexyl-21,24-diethyl-18-methyl-7,8-dihydro-6H-7,11-(epiminoethanoiminoethanoiminothioiminomethano)-indolo[1,2-e][1,5]benzoxazocin-15-one 17,17-dioxide]",IC50,"Table 1, 16 membered macrocycles, read-out: IC50* (nM), Inhibition of HCV subgenomic replication",< 25 nM
"Cc1ccc2c(c1)OCC1Cn3c-2c(C2CCCCC2)c2ccc(cc23)C(=O)NS(=O)(=O)N(C)CCN(C(C)C)CCN1C [Example 218, (7R)-14-cyclohexyl-21-isopropyl-3,18,24-trimethyl-7,8-dihydro-6H-7,11-(epiminoethanoiminoethanoiminothioiminomethano)-indolo[1,2-e][1,5]benzoxazocin-15-one 17,17-dioxide]",IC50,[2],< 25 nM
"COc1ccc2c(c1)OCC1CCN(C)CC(F)(F)CN(C)S(=O)(=O)NC(=O)c3ccc4c(C5CCCCC5)c-2n(c4c3)C1 [Example 524, (7R)-14-cyclohexyl-20,20-difluoro-3-methoxy-18,22-dimethyl-7,8-dihydro-6H-7,11-(ethanoiminopropanoiminothioiminomethano)indolo[1,2-e][1,5]benzoxazocin-15-one 17,17-dioxide]",IC50,[4],150 to 500 nM
"CCN1CCN(C)C2COc3cc(F)ccc3-c3c(C4CCCCC4)c4ccc(cc4n3C2)C(=O)NS(=O)(=O)N(C)CC1 [Example 203, (7R)-14-cyclohexyl-21-ethyl-3-fluoro-18,24-dimethyl-7,8-dihydro-6H-7,11-(epiminoethanoiminoethanoiminothioiminomethano)-indolo[1,2-e][1,5]benzoxazocin-15-one 17,17-dioxide]",IC50,[2],< 25 nM
"CC(C)N1CCN(C)C2COc3ccc(F)cc3-c3c(C4CCCCC4)c4ccc(cc4n3C2)C(=O)NS(=O)(=O)N(C)CC1 [Example 209, (7R)-14-cyclohexyl-2-fluoro-21-isopropyl-18,24-dimethyl-7,8-dihydro-6H-7,11-(epiminoethanoiminoethanoiminothioiminomethano)-indolo[1,2-e][1,5]benzoxazocin-15-one 17,17-dioxide]",IC50,[2],< 25 nM
